{"source": "ChEMBL document CHEMBL1122505", "about": "“Pyrimidine and triazine 3-oxide sulfates: a new family of vasodilators” (1983)", "type_in_all_cases": "functional, Artery", "key": {"Rattus norvegicus [1]": {"test_system": "Rattus norvegicus", "assay": "Average change in mean arterial blood pressure (mmHg) observed at 4 hr after oral administration at a dose of 14 mg/kg in female Sprague-Dawley rats"}, "Rattus norvegicus [2]": {"test_system": "Rattus norvegicus", "assay": "Average change in mean arterial blood pressure (mmHg) observed at 4 hr after oral administration at a dose of 5 mg/kg in female Sprague-Dawley rats"}, "Rattus norvegicus [3]": {"test_system": "Rattus norvegicus", "assay": "Average change in mean arterial blood pressure (mmHg) observed at 4 hr after oral administration at a dose of 50 mg/kg in female Sprague-Dawley rats"}, "Rattus norvegicus [4]": {"test_system": "Rattus norvegicus", "assay": "Average change in mean arterial blood pressure (mmHg) observed at 4 hr after oral administration at a dose of 0.15 mg/kg in female Sprague-Dawley rats"}}, "note": "Where a name gives a salt, the structure may show the parent alone."}
{"compound": "Cc1cc(N2CCOCC2)nc(N)[n+]1OS(=O)(=O)[O-]", "values": [{"measurement": "Delta blood pressure", "setting": "Rattus norvegicus [1]", "result": -37, "unit": "mmHg"}]}
{"compound": "C=CCN(CC=C)c1nc(N)[n+](OS(=O)(=O)[O-])c(N)n1", "values": [{"measurement": "Delta blood pressure", "setting": "Rattus norvegicus [2]", "result": -21, "unit": "mmHg"}]}
{"compound": "CNc1cc(N)[n+](OS(=O)(=O)[O-])c(N)n1", "values": [{"measurement": "Delta blood pressure", "setting": "Rattus norvegicus [3]", "result": -8, "unit": "mmHg"}]}
{"compound": "Cc1cc(N2CCCC2)nc(N)[n+]1OS(=O)(=O)[O-]", "values": [{"measurement": "Delta blood pressure", "setting": "Rattus norvegicus [3]", "result": -39, "unit": "mmHg"}]}
{"compound": "Nc1cc(N2CCCCC2)nc(N)[n+]1OS(=O)(=O)[O-]", "note": "[MINOXIDIL SULFATE]", "values": [{"measurement": "Delta blood pressure", "setting": "Rattus norvegicus [4]", "result": -16, "unit": "mmHg"}]}
